Results from article PMC6825211 (Nature Communications, 2019).

Assays:
MST1 [1] = biological target: T1, MST1 (Homo sapiens, UniProt Q13043); experiment: LanthaScreen Eu kinase binding assay (HTS and dose response); parameters: purchased ThermoFisher; conditions: 1 μM; positive control
T1 sequence (Q13043 1-487): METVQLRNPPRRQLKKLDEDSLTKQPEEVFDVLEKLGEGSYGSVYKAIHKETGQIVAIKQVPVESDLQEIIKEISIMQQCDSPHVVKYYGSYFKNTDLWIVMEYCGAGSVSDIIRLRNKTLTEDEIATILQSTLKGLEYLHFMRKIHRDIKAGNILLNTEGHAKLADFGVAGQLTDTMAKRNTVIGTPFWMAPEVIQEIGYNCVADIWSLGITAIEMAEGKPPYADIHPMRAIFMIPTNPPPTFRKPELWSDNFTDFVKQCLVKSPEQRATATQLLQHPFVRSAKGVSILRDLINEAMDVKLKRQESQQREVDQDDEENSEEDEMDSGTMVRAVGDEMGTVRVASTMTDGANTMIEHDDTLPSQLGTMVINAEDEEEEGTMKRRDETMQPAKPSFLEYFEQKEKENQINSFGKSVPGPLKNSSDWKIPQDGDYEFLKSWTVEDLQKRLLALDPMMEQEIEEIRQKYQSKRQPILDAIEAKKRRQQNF
Method: A total of 39 hits were selected for 9-point dose response confirmation in triplicate, starting at 1 μM followed by 1:5 serial dilution.
Compounds in 1000× DMSO stock solution were dispensed by using Echo555 liquid dispensing system (Labcyte, CA) to 1536-well microplate (Corning, NY). Kinase buffer A (ThermoFisher, MA) was prepared and added to each well. […] Each reagent was added to the microplate in equal volume.

[2] = tested on: mouse model of liver and intestine injury; parameters: method as in PMID 27535619; conditions: cited from earlier work
MST1 [3] = biological target: T1, MST1; experiment: Biochemical kinase dose response (Suppl. Fig. 5); conditions: concentrations up to 10 μM
MST1 [4] = biological target: T2, MST1 (Rattus norvegicus, UniProt A0A8I6A0F8); experiment: CETSA assay; type: cell-based; conditions: 5 μM, 2 h, INS-1E, 55 °C
T2 construct: endogenous in cells; host or cells: INS-1E (rat beta-cell line)
Method: Thereafter, cells were pelleted at 200 g for 4 min and resuspended in PBS supplemented with phosphatase and protease inhibitor cocktail at the cell density of 3 Mill./100 µl. Each cell suspension was distributed into five 0.2-ml PCR tubes with 100 µl of cell suspension per tube. PCR tubes were heated at their designated temperature (43–55 °C) on a thermal cycler for 3 min, incubated at room temperature for 3 min, and snap-frozen in liquid nitrogen. Cell lysates were prepared by freezing–thawing the samples in liquid nitrogen twice, and soluble MST1 was detected by western blot analysis.

MST1–LATS2 signaling [5] = experiment: Western blot of YAP-S127 phosphorylation (MST1/LATS2 overexpression); conditions: 10 μM, last 24 h
MST family members = tested on: MST family members; parameters: method as in PMID 22037378; conditions: cited from earlier work
MST2 = MST2 (Homo sapiens, UniProt Q13188); experiment: Biochemical kinase dose response (Suppl. Fig. 2, 5); conditions: concentrations up to 10 μM
MST1–LATS2 signaling [6] = experiment: LATS-BS in vitro luciferase assay (MST1/LATS2 overexpression)
Source text: Therefore a LATS-BS construct has been generated with fusion of YAP fragment and 14-3-3 with N-terminal and C-terminal firefly luciferase fragments (N-luc and C-luc), respectively that assesses LATS kinase activity by measuring the interaction between pS127-YAP and 14-3-3[35] in a MST1–LATS2-phosphorylation-dependent manner (Fig. 4a).
As internal transfection control, pRL-Renilla luciferase control reporter vector (Promega) was co-transfected into each sample. […] Luciferase signal was calculated based on the ratio of luciferase activity of LATS-BS to control reporter vector.

INS-1E cells = experiment: Western blot of pMST1, caspase-3/PARP cleavage, PDX1, BIM under diabetogenic conditions; type: cell-based, rat; conditions: 10 μM, 24 h
Method: . pThr183), caspase-3 and PARP cleavage, PDX1, tubulin, and actin were analyzed by western blotting. Representative Western blots and pooled quantitative densitometry analysis are shown from three independent cell line experiments (n = 3). […]; all by Student’s t tests.
. pThr183), caspase-3 and PARP cleavage, and BIM and actin were analyzed by western blotting. Representative Western blots (b) and pooled quantitative densitometry analysis (c) are shown from 3–6 independent culture dishes (n = 3–6). […]; all by Student’s t tests.
Human islets were isolated from eight pancreases of nondiabetic organ donors at PRODO Labs and at Lille University and cultured on extracellular matrix-coated dishes (Novamed, Jerusalem, Israel)[62] or on Biocoat Collagen I coated dishes (#356400, Corning, ME, USA). […] The clonal rat β-cell line INS-1E was kindly provided by Dr. Claes Wollheim, Geneva & Lund University. Human islets were cultured in complete CMRL-1066 (Invitrogen) medium at 5.5 mM glucose, mouse islets and INS-1E cells at complete RPMI-1640 medium at 11.1 mM glucose. […] . Palmitic acid (Sigma) was dissolved at 10 mmol/l in RPMI-1640 medium containing 11% fatty acid–free bovine serum albumin (BSA) (Sigma) under an N2-atmosphere and added to the culture at 0.5 mM[64]. […] . Isolated human islets or INS-1E cells were infected with adenovirus carrying LacZ as control or MST1 or LATS2 (all Vector Biolabs), at a multiplicity of infection of 100 (human islets) or 20 (INS-1E) for 4 h[11]. Adenovirus was subsequently washed off with PBS and replaced by fresh medium with 10% FBS and the respective analysis performed after 48 h post infection.

T2 sequence (A0A8I6A0F8 1-487): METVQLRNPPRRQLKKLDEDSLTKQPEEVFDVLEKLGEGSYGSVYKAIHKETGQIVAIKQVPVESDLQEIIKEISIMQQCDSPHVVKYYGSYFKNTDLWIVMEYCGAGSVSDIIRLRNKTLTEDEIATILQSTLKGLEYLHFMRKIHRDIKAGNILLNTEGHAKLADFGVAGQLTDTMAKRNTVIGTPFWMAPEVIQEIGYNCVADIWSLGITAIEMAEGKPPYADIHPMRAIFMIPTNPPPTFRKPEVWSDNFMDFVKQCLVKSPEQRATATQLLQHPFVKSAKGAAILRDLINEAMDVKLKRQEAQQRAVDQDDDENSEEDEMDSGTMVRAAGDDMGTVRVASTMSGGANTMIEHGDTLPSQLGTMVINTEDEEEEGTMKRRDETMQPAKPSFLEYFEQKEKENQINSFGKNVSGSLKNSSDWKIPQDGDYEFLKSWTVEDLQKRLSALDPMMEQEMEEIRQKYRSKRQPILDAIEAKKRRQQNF
Chain of MST2 (Q13188 whole entry, species assumed): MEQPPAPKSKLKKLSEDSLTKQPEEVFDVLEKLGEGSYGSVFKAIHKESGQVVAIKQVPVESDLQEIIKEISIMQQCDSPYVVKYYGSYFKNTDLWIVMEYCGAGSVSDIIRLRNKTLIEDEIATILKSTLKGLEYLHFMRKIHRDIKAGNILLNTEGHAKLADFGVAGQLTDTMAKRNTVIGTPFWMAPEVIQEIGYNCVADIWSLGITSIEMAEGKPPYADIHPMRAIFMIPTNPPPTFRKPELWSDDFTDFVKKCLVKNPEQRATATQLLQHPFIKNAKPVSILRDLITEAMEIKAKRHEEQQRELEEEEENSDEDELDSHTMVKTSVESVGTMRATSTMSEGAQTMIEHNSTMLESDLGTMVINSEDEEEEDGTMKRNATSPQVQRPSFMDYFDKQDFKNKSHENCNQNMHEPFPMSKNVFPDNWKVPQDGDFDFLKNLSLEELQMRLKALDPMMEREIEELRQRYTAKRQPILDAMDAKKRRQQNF

Structure (SMILES): CN[C@@H]1C[C@H]2O[C@@](C)([C@@H]1OC)n1c3ccccc3c3c4c(c5c6ccccc6n2c5c31)C(=O)NC4 [staurosporine]
- inhibition at 1 µM (MST1 [1]): 100%

Structure (SMILES): CN1C(=O)c2sccc2N(C)c2nc(Nc3ccc(S(N)(=O)=O)cc3)ncc21 [XMU-MP-1]
- effect in mouse model of liver and intestine injury [2]: promotes tissue repair and regeneration

Structure (SMILES): C=CC(=O)Nc1cc2c(Nc3ccc(F)c(Cl)c3)ncnc2cc1OCCCN1CCOCC1 [canertinib]
- inhibition of MST1 (MST1 [3]): no appreciable inhibition
- thermal stabilization of MST1 in intact cells (MST1 [4]): degradation occurred at the same condition
- MST1/LATS2-induced YAP-S127 phosphorylation (MST1–LATS2 signaling [5]): had no inhibitory effect
- activity on MST family members (MST family members): without MST family inhibitory activity
- inhibition of MST2 (MST2): no appreciable inhibition
- MST1/LATS2-induced luciferase activity (LATS-BS) (MST1–LATS2 signaling [6]; 10 μM, last 24 h): had no inhibitory effect
- Firefly/Renilla x1000 (MEAN) (MST1–LATS2 signaling [6]; L2/Mst1 overexpression + 10 μM compound, mean of six dishes): 27.5257
- cleaved caspase-3, cleaved PARP, and BIM under basal conditions (INS-1E cells): significant stimulatory effect
- mitochondrial BIM induction under diabetic conditions (INS-1E cells; HG/Pal): but not the EGFR inhibitor canertinib significantly reduced
- stress-induced MST1 activation and caspase-3 and PARP cleavage (INS-1E cells; HG/Pal): ineffective
